Data reported in patent US12297502B2, “Methods and compositions for detecting and diagnosing diseases and conditions” (Stealth BioTherapeutics Inc., priority 2013, dated 2025).

Columns and labels:
[1] = tested on: plasma membrane of several mammalian cell types; settings: energy-independent manner; Zhao et al., J. Pharmacol Exp Ther., 304:425-432, 2003; cited from earlier work
[2] = tested on: TAZ1 mRNA; assay: TAZ1 mRNA in LV tissue by real-time PCR, dog model of heart failure; assay type: in vivo; settings: HF dogs, 0.5 mg/kg subcutaneous once daily, three months, normalized to GAPDH, printed as e.g. about ... or more
From the text: In this Example, the effect of the aromatic-cationic peptide D-Arg-2′6′-Dmt-Lys-Phe-NH2 on cardiolipin remodeling enzymes, MLCL AT1, ALCAT1, and TAZ1 in dogs with coronary microembolization-induced heart failure will be investigated.
Heart failure will be induced in dogs via multiple sequential intracoronary microembolizations as described in Sabbah, et al., Am J Physiol. (1991) 260:H1379-84, herein incorporated by reference in its entirety.
Twelve dogs will be subject to coronary microembolization-induced heart failure (LV ejection fraction ˜30%). Subjects will be randomized into D-Arg-2′6′-Dmt-Lys-Phe-NH2-treated and control groups for a three-month trial. Subjects will receive subcutaneous injections of D-Arg-2′6′-Dmt-Lys-Phe-NH2 (0.5 mg/kg once daily, n=6) or saline (Untreated-HF Control, n=6). RNA will be prepared from LV tissue of all subjects at the end of the treatment phase and from the LV of six normal subject controls. Levels of TAZ1 mRNA will be determined by real-time PCR. Changes in mRNA levels will be expressed as fold reduction using the CT Method, with normalization to a […] (GAPDH) internal control.

[3] = target: mu-opioid receptor (Homo sapiens, UniProt P35372); assay: mu-opioid receptor agonist activity; settings: stated in the description, no test described
mu-opioid receptor, sequence (P35372 whole entry, species assumed): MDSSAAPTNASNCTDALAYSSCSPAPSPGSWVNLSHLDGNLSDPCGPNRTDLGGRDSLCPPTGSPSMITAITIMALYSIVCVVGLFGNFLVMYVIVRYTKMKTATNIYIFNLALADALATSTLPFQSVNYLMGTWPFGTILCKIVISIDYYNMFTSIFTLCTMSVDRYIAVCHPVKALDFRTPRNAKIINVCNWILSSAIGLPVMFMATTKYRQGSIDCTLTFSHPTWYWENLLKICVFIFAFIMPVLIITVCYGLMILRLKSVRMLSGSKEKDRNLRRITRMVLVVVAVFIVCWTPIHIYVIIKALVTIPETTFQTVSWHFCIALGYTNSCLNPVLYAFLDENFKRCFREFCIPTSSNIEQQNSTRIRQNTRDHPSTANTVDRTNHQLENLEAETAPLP

[4] = tested on: heart mitochondrial cardiolipin; assay: 18:2 cardiolipin in left ventricle heart muscle, dog model of heart failure (shotgun lipidomics); assay type: in vivo; settings: HF dogs, 0.5 mg/kg/day intravenously, 12 weeks, versus normal dogs (NL) and untreated HF dogs (HF-CON)
From the text: In this Example, the effect of aromatic-cationic peptide such as D-Arg-2′6′-Dmt-Lys-Phe-NH2 on heart mitochondrial cardiolipin levels in dogs with coronary microembolization-induced heart failure will be investigated.
Heart failure will be induced in dogs via multiple sequential intracoronary microembolizations as described in Sabbah, et al., Am J Physiol. (1991) 260:H1379-84, herein incorporated by reference in its entirety. Half the dogs will be subsequently treated with the mitochondrial peptide; the other half will be treated with drug vehicle and serve as controls. Peptide treatment will be started upon induction of heart failure (HF), defined as left ventricular ejection fraction of approximately 30%. The daily dose of the peptide will be 0.5 mg/kg/day administered intravenously. At the end of the treatment phase (12 weeks) dogs in both the vehicle and treatment groups will be sacrificed and a sample of heart muscle from the left ventricle will be removed, washed with saline, and immediately frozen and stored at −80° C. For cardiolipin analysis, lipids will be extracted from the heart tissue sample with a chloroform/methanol solution (Bligh Dyer extraction). […]

[5] = tested on: dogs with coronary microembolization-induced heart failure; assay: LV function and mitochondrial ATP synthesis, dog model of heart failure; assay type: in vivo; settings: HF dogs, chronic treatment
[6] = cited from earlier work

2′,6′-Dmt-D-Arg-Phe-Lys-NH2
penetration of cell membranes [1]: readily penetrates

D-Arg-2′6′-Dmt-Lys-Phe-NH2
attenuation of the decrease of TAZ1 mRNA [2]: 1-1.23 fold
mu-opioid receptor agonist activity [3]: does not have mu-opioid receptor agonist activity
levels of 18:2 cardiolipin [4]: normalize
LV function [5]: improved
rate of mitochondrial ATP synthesis [5]: improved

cardiolipin
pK2 ([6]; ionization of both phosphates): > 7.5
pK1 ([6]; ionization of one phosphate): 3
